Results: US20230031406A1, “COMPOUNDS AND COMPOSITIONS FOR TREATING CONDITIONS ASSOCIATED WITH NLRP ACTIVITY” (Novartis AG, priority 2018, published 2023)
Where two headings read alike, the source gives them in different places.

Tested on: PMA-differentiated THP-1 cells
Experiment: IL-1β production in PMA-differentiated THP-1 cells stimulated with gramicidin (hTHP-1 assay containing 2% fetal bovine serum; Procedures 1 and 2)
Format: cell-based, human
Conditions: 2% fetal bovine serum
Method in brief: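 PMA-primed (20 ng/ml, 16-18 h) THP-1 cells in RPMI with 2% FBS, 50,000 cells/well, were preincubated 1 h with compound (0.0017-100 μM final, 0.37% DMSO), then stimulated 2 h with 5 μM gramicidin. Supernatant IL-1β measured by HTRF.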

[1] = Table B2, class symbols, read-out: hTHP-1 IC50
[2] = Homo sapiens, THP-1, Table B2, class symbols, read-out: hTHP-1 IC50
[3] = Table B1, class symbols, read-out: Average IC50 of compounds in hTHP-1 assay: hTHP-1 IC50
[4] = Table B3, hTHP-1 assay, class symbols, read-out: IC50
[5] = Homo sapiens, THP-1, Table B1, class symbols, read-out: Average IC50 of compounds in hTHP-1 assay: hTHP-1 IC50
[6] = Table B4, class symbols, read-out: hTHP-1 IC50

NS(=O)(=NC(=O)Nc1c2c(nc3c1CCC31CC1)CCC2)c1ccn(C(F)F)n1 (single isomer, unassigned) [Compound 180b, (S) or (R)-1-(difluoromethyl)-N′-((1′,5′,6′,7′-tetrahydro-2′H-spiro[cyclopropane-1,3′-dicyclopenta[b,e]pryidin]-8′-yl)carbamoyl)-1H-pyrazole-3-sulfonimidamide]
IC50 (Homo sapiens, THP-1, Table B1, numeric bounds, read-out: Average IC50 of compounds in hTHP-1 assay: hTHP-1 IC50): > 30 µM

CCc1c(C2CC2)nc2c(c1NC(=O)N=S(N)(=O)c1cc(C(C)(C)O)cs1)CCC2 (single isomer, unassigned) [Compound 181a, (S) or (R)-N′-((2-cyclopropyl-3-ethyl-6,7-dihydro-5H-cyclopenta[b]pyridin-4-yl)carbamoyl)-4-(2-hydroxypropan-2-yl)thiophene-2-sulfonimidamide]
IC50 [1]: 1 to 5 µM

Cc1c(C2CC2)nc(C2CC2)c(C)c1NC(=O)N=S(N)(=O)c1cc(C(C)(C)O)cs1 (stereo not shown) [Compound 612, N′-((2,6-dicyclopropyl-3,5-dimethylpyridin-4-yl)carbamoyl)-4-(2-hydroxypropan-2-yl)thiophene-2-sulfonimidamide]
IC50 [2]: 1 to 5 µM

CC(C)(O)c1cnc(S(N)(=O)=NC(=O)Nc2c3c(nc4c2CCC42CC2)CCC3)s1 (single isomer, unassigned) [Compound 683a, (R) or (S)-5-(2-Hydroxypropan-2-yl)-N′-((1′,5′,6′,7′-tetrahydro-2′H-spiro[cyclopropane-1,3′-dicyclopenta[b,e]pyridin]-8′-yl)carbamoyl) thiazole-2-sulfonimidamide]
IC50 [1]: 0.2 to 1 µM

Cc1c(CO)nc2c(c1NC(=O)N=S(N)(=O)c1cnc(C(C)(C)O)s1)CCC2 (stereo not shown) [Compound 619, N-((2-(hydroxymethyl)-3-methyl-6,7-dihydro-5H-cyclopenta[b]pyridin-4-yl)carbamoyl)-2-(2-hydroxypropan-2-yl)thiazole-5-sulfonimidamide]
IC50 [2]: 5 to 30 µM

CC1CCc2c1nc1c(c2NC(=O)N=S(N)(=O)c2cc(C(C)(C)O)cs2)CCC1C (single isomer, unassigned) [Compound 131d, (S,R,R) or (S,S,S) or (S,R,S) and (S,S,R)-N′-((3,5-dimethyl-1,2,3,5,6,7-hexa-hydrodicyclopenta[b,e]pyridin-8-yl)carbamoyl)-4-(2-hydroxypropan-2-yl)thio-phene-2-sulfonimidamide]
IC50 [3]: 5 to 30 µM

CC1(C)CCc2c1nc1c(c2NC(=O)N=S(N)(=O)c2nn(C(F)F)cc2F)CCC1 (single isomer, unassigned) [Example 722, (S) or (R)-1-(difluoromethyl)-N′-((3,3-dimethyl-1,2,3,5,6,7-hexahydrodicyclopenta[b,e]pyridin-8-yl)carbamoyl)-4-fluoro-1H-pyrazole-3-sulfonimidamide]
IC50 [4]: 1 to 5 µM

CC(C)c1cnc(F)c(C(C)C)c1NC(=O)N=S(N)(=O)c1cnc(C(C)(C)O)s1 (stereo not shown) [Compound 115, N′-((2-fluoro-3,5-diisopropylpyridin-4-yl)carbamoyl)-2-(2-hydroxypropan-2-yl)thiazole-5-sulfonimidamide]
IC50 [5]: 1 to 5 µM

Cc1c(C(F)(F)F)nc2c(c1NC(=O)N=S(N)(=O)c1nn(C(F)F)cc1F)CCC2 (single isomer, unassigned) [Example 563]
IC50 [4]: 5 to 30 µM

CC1(C)Cc2nc3c(c(NC(=O)N=S(N)(=O)c4cnc(C(C)(C)O)s4)c2C1)CCC3 (stereo not shown) [Compound 147, N′-((2,2-dimethyl-1,2,3,5,6,7-hexahydrodicyclopenta[b,e]pyridin-8-yl)carbamoyl)-2-(2-hydroxypropan-2-yl)thiazole-5-sulfonimidamide]
IC50 [5]: 5 to 30 µM

Cc1c(C(F)(F)F)nc2c(c1NC(=O)N=S(N)(=O)c1cnc(C(C)(C)O)s1)CCC2C (single isomer, unassigned) [Example 704, (R/S, R) or (R/S, S)-N′-((3,7-dimethyl-2-(trifluoromethyl)-6,7-dihydro-5H-cyclopenta[b]pyridin-4-yl)carbamoyl)-2-(2-hydroxypropan-2-yl)thiazole-5-sulfonimidamide]
IC50 [4]: 0.2 to 1 µM

CC(C)(O)c1csc(S(N)(=O)=NC(=O)Nc2cc(C3CC3)nc3c2CCC3)c1 (single isomer, unassigned) [Compound 176a, (S) or (R)-N′-((2-cyclopropyl-6,7-dihydro-5H-cyclopenta[b]pyridin-4-yl)carbamoyl)-4-(2-hydroxypropan-2-yl)thiophene-2-sulfonimidamide]
IC50 (Homo sapiens, THP-1, Table B2, numeric bounds, read-out: hTHP-1 IC50): > 30 µM

CC(C)(O)c1sc(S(N)(=O)=NC(=O)Nc2c3c(nc4c2CCC4(C)C)CCC3)cc1F (single isomer, unassigned) [Compound 613b, -N′-((3,3-dimethyl-1,2,3,5,6,7-hexahydrodicyclopenta [b,e]pyridin-8-yl)carbamoyl)-4-fluoro-5-(2-hydroxypropan-2-yl)thiophene-2-sulfonimidamide]
IC50 [1]: 1 to 5 µM

CCn1cc(F)c(S(N)(=O)=NC(=O)Nc2c(C)c(CC(F)(F)F)nc3c2CCC3)n1 (single isomer, unassigned) [Example 718, (S) or (R)-1-ethyl-4-fluoro-N′-((3-methyl-2-(2,2,2-trifluoroethyl)-6,7-dihydro-5H-cyclopenta[b]pyridin-4-yl)carbamoyl)-1H-pyrazole-3-sulfonimidamide]
IC50 (Homo sapiens, THP-1, Table B3, hTHP-1 assay, numeric values, read-out: IC50): > 30 µM

COCc1nc(C(C)(C)O)sc1S(N)(=O)=NC(=O)Nc1c2c(nc3c1CCC3)CCC2 (single isomer, unassigned) [Compound 689b, (R) or (S)-N′-((1,2,3,5,6,7-hexahydrodicyclopenta [b,e]pyridin-8-yl)carbamoyl)-2-(2-hydroxypropan-2-yl)-4-(methoxymethyl) thiazole-5-sulfonimidamide]
IC50 [2]: 5 to 30 µM

Cc1c(C(F)(F)F)nc(C(F)(F)F)c(C)c1NC(=O)N=S(N)(=O)c1cc(C(C)(C)O)cs1 (single isomer, unassigned) [Example 755, (R) or (S)-N′-((3,5-dimethyl-2,6-bis(trifluoromethyl)pyridin-4-yl)carbamoyl)-4-(2-hydroxypropan-2-yl)thiophene-2-sulfonimidamide]
IC50 [6]: 0.2 to 1 µM

Cc1sc(S(N)(=O)=NC(=O)Nc2c3c(nc4c2CCC4C)CCC3)nc1C(C)(C)O (stereo not shown) [Compound 104, 4-(2-Hydroxypropan-2-yl)-5-methyl-N′-((3-methyl-1,2,3,5,6,7-hexahydrodicyclopenta[b,e]pyridin-8-yl)carbamoyl)thiazole-2-sulfonimidamide]
IC50 [3]: 0.2 to 1 µM

CC(C)(O)c1cnc(S(N)(=O)=NC(=O)Nc2c3c(nc4c2CCC4)CCC3)s1 (single isomer, unassigned) [Compound 167b, (R) or (S)-N′-((1,2,3,5,6,7-hexahydrodicyclo-penta[b,e]pyridin-8-yl)carbamoyl)-5-(2-hydroxypropan-2-yl)thiazole-2-sulfonimidamide]
IC50 [3]: 0.2 to 1 µM

CC1(C)CCc2c1nc1c(c2NC(=O)N=S(N)(=O)c2cnn(C(F)F)c2)CCC1 (stereo not shown) [Compound 637, 1-(Difluoromethyl)-N′-((3,3-dimethyl-1,2,3,5,6,7-hexahydrodicyclopenta[b,e]pyridin-8-yl)carbamoyl)-1H-pyrazole-4-sulfonimidamide]
IC50 [2]: 5 to 30 µM

CC(C)c1ncc(F)c(C(C)C)c1NC(=O)N=S(N)(=O)c1cnc(C(C)(C)O)s1 (single isomer, unassigned) [Compound 164b, (S) or (R)-N′-((5-fluoro-2,4-diisopropylpyridin-3-yl)carbamoyl)-2-(2-hydroxypropan-2-yl)thiazole-5-sulfonimidamide]
IC50 [3]: 5 to 30 µM

Cc1c(C2CC2)nc2c(c1NC(=O)N=S(N)(=O)c1nc(C(C)(C)O)cs1)CCC2 (stereo not shown) [Compound 626, N′-((2-cyclopropyl-3-methyl-6,7-dihydro-5H-cyclopenta[b]pyridin-4-yl)carbamoyl)-4-(2-hydroxypropan-2-yl)thiazole-2-sulfonimidamide]
IC50 [2]: 0.04 to 0.2 µM

Cc1c(C(F)(F)F)nc2c(c1NC(=O)N=S(N)(=O)c1cnc(C(C)(C)O)s1)CCC2C (single isomer, unassigned) [Compound 608c]
IC50 [1]: 0.2 to 1 µM

CC(C)n1nc(S(N)(=O)=NC(=O)Nc2c3c(nc4c2CCC42CC2)CCC3)cc1CO (single isomer, unassigned) [Example 641, (R) or (S)-5-(hydroxymethyl)-1-isopropyl-N′-((1′,5′,6′,7′-tetrahydro-2′H-spiro[cyclopropane-1,3′-dicyclopenta[b,e]pyridin]-8′-yl)carbamoyl)-1H-pyrazole-3-sulfonimidamide]
IC50 (Homo sapiens, THP-1, Table B3, hTHP-1 assay, class symbols, read-out: IC50): 1 to 5 µM

CC1CCc2c1nc1c(c2NC(=O)N=S(N)(=O)c2sc(C(C)(C)O)nc2CO)CCC1 (stereo not shown) [Compound 168, 4-(hydroxymethyl)-2-(2-hydroxypropan-2-yl)-N′-((3-methyl-1,2,3,5,6,7-hexahydrodicyclopenta[b,e]pyridin-8-yl)carbamoyl)thiazole-5-sulfonimidamide]
IC50 [3]: 0.2 to 1 µM

CC1(C)CCc2c1nc1c(c2NC(=O)N=S(N)(=O)c2sc(C(O)(CO)CO)nc2CO)CCC1 (single isomer, unassigned) [Example 778, (S) or (R)-N′-((3,3-dimethyl-1,2,3,5,6,7-hexahydrodicyclopenta [b,e]pyridin-8-yl)carbamoyl)-4-(hydroxymethyl)-2-(1,2,3-trihydroxypropan-2-yl)-thiazole-5-sulfonimidamide]
IC50 [6]: 1 to 5 µM
